Measured values as given in patent US9693556B2, “Herbicidal pyridazinone derivatives” (SYNGENTA LIMITED, priority 2011, dated 2017).

Assays:
Type in all cases: in vivo
[1] = system: Alopecurus myosuroides (ALOMY); experiment: Pre-emergence herbicidal glasshouse test on Alopecurus myosuroides; settings: pre-emergence; 1000 g/h; evaluated after 13 days
In short: (§1)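 Scoring scale: 5=80-100%, 4=60-79%, 3=40-59%, 2=20-39%, 1=0-19% damage, assessed on day 13. Compound sprayed at 1000 g/h on soil-grown plants (day 1 pre-, day 8 post-emergence) kept at 24/16 °C, 14 h light.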

Setaria faberi (SETFA) [2] = experiment: Pre-emergence herbicidal glasshouse test on Setaria faberi; settings: pre-emergence; 1000 g/h; evaluated after 13 days
In short: as §1

[3] = system: Echinochloa crus-galli (ECHCG); experiment: Pre-emergence herbicidal glasshouse test on Echinochloa crus-galli; settings: pre-emergence; 1000 g/h; evaluated after 13 days
In short: as §1

Solanum nigrum (SOLNI) [4] = experiment: Pre-emergence herbicidal glasshouse test on Solanum nigrum; settings: pre-emergence; 1000 g/h; evaluated after 13 days
In short: as §1

[5] = system: Amaranthus retoflexus (AMARE); experiment: Pre-emergence herbicidal glasshouse test on Amaranthus retoflexus; settings: pre-emergence; 1000 g/h; evaluated after 13 days
In short: as §1

[6] = system: Ipomoea hederacea (IPOHE); experiment: Pre-emergence herbicidal glasshouse test on Ipomoea hederacea; settings: pre-emergence; 1000 g/h; evaluated after 13 days
In short: as §1

[7] = system: Alopecurus myosuroides (ALOMY); experiment: Post-emergence herbicidal glasshouse test on Alopecurus myosuroides; settings: post-emergence; 1000 g/h; evaluated after 13 days
In short: as §1

Setaria faberi (SETFA) [8] = experiment: Post-emergence herbicidal glasshouse test on Setaria faberi; settings: post-emergence; 1000 g/h; evaluated after 13 days
In short: as §1

[9] = system: Echinochloa crus-galli (ECHCG); experiment: Post-emergence herbicidal glasshouse test on Echinochloa crus-galli; settings: post-emergence; 1000 g/h; evaluated after 13 days
In short: as §1

Solanum nigrum (SOLNI) [10] = experiment: Post-emergence herbicidal glasshouse test on Solanum nigrum; settings: post-emergence; 1000 g/h; evaluated after 13 days
In short: as §1

[11] = system: Amaranthus retoflexus (AMARE); experiment: Post-emergence herbicidal glasshouse test on Amaranthus retoflexus; settings: post-emergence; 1000 g/h; evaluated after 13 days
In short: as §1

[12] = system: Ipomoea hederacea (IPOHE); experiment: Post-emergence herbicidal glasshouse test on Ipomoea hederacea; settings: post-emergence; 1000 g/h; evaluated after 13 days
In short: as §1

Row | SMILES | PRE Application ALOMY herbicidal damage (five point scale) [1] | PRE Application SETFA herbicidal damage (five point scale) (Setaria faberi (SETFA) [2]) | PRE Application ECHCG herbicidal damage (five point scale) [3] | PRE Application SOLNI herbicidal damage (five point scale) (Solanum nigrum (SOLNI) [4]) | PRE Application AMARE herbicidal damage (five point scale) [5] | PRE Application IPOHE herbicidal damage (five point scale) [6] | POST Application ALOMY herbicidal damage (five point scale) [7] | POST Application SETFA herbicidal damage (five point scale) (Setaria faberi (SETFA) [8]) | POST Application ECHCG herbicidal damage (five point scale) [9] | POST Application SOLNI herbicidal damage (five point scale) (Solanum nigrum (SOLNI) [10]) | POST Application AMARE herbicidal damage (five point scale) [11] | POST Application IPOHE herbicidal damage (five point scale) [12]
1 | Cn1ncc(-c2cccn(CC(F)(F)F)c2=O)c(O)c1=O [Compound 9.005] | 1 (1=0-19% damage) | 1 (1=0-19% damage) | 1 (1=0-19% damage) | 1 (1=0-19% damage) | 1 (1=0-19% damage) | 1 (1=0-19% damage) | 1 (1=0-19% damage) | 1 (1=0-19% damage) | 1 (1=0-19% damage) | 4 (4=60-79% damage) | 2 (2=20-39% damage) | 2 (2=20-39% damage)
2 | Cn1nc(N)c(-c2ccc(C(F)(F)F)cc2S(C)(=O)=O)c(O)c1=O [Compound 2.039] | 5 (5=80-100% damage) | 5 (5=80-100% damage) | 5 (5=80-100% damage) | 5 (5=80-100% damage) | 5 (5=80-100% damage) | 5 (5=80-100% damage) | 5 (5=80-100% damage) | 5 (5=80-100% damage) | 5 (5=80-100% damage) | 5 (5=80-100% damage) | 5 (5=80-100% damage) | 5 (5=80-100% damage)
3 | Cn1ncc(-n2ccc(C(F)(F)F)c(-c3ccccc3C(F)(F)F)c2=O)c(O)c1=O [Compound 1.052] | 4 (4=60-79% damage) | 4 (4=60-79% damage) | 5 (5=80-100% damage) | 5 (5=80-100% damage) | 5 (5=80-100% damage) | 1 (1=0-19% damage) | 4 (4=60-79% damage) | 5 (5=80-100% damage) | 5 (5=80-100% damage) | 5 (5=80-100% damage) | 5 (5=80-100% damage) | 5 (5=80-100% damage)
4 | Cn1ncc(-c2ccc(S(C)(=O)=O)c(O)c2Cl)c(O)c1=O [Compound 1.108] | 1 (1=0-19% damage) | 1 (1=0-19% damage) | 1 (1=0-19% damage) | 1 (1=0-19% damage) | 1 (1=0-19% damage) | 1 (1=0-19% damage) | 1 (1=0-19% damage) | 1 (1=0-19% damage) | 1 (1=0-19% damage) | 3 (3=40-59% damage) | 3 (3=40-59% damage) | 1 (1=0-19% damage)
5 | COc1cccc(-c2c(C(F)(F)F)ccn(-c3cnn(C)c(=O)c3O)c2=O)c1 [Compound 7.003] | 4 (4=60-79% damage) | 4 (4=60-79% damage) | 4 (4=60-79% damage) | 5 (5=80-100% damage) | 5 (5=80-100% damage) | 3 (3=40-59% damage) | 4 (4=60-79% damage) | 3 (3=40-59% damage) | 5 (5=80-100% damage) | 5 (5=80-100% damage) | 5 (5=80-100% damage) | 3 (3=40-59% damage)
6 | Cn1ncc(-c2ccc(C(F)(F)F)n(C)c2=O)c(O)c1=O [Compound 9.010] | 1 (1=0-19% damage) | 1 (1=0-19% damage) | 5 (5=80-100% damage) | 1 (1=0-19% damage) | 5 (5=80-100% damage) | 1 (1=0-19% damage) | 2 (2=20-39% damage) | 2 (2=20-39% damage) | 4 (4=60-79% damage) | 5 (5=80-100% damage) | 5 (5=80-100% damage) | 4 (4=60-79% damage)
7 | CCn1ncc(-c2ccc(Cl)cc2S(C)(=O)=O)c(O)c1=O [Compound 2.017] | 5 (5=80-100% damage) | 5 (5=80-100% damage) | 5 (5=80-100% damage) | 5 (5=80-100% damage) | 5 (5=80-100% damage) | 5 (5=80-100% damage) | 5 (5=80-100% damage) | 5 (5=80-100% damage) | 5 (5=80-100% damage) | 5 (5=80-100% damage) | 5 (5=80-100% damage) | 5 (5=80-100% damage)
8 | CC(C)n1ncc(-c2ccc(C(F)(F)F)cc2S(C)(=O)=O)c(O)c1=O [Compound 1.013] | 5 (5=80-100% damage) | 5 (5=80-100% damage) | 5 (5=80-100% damage) | 5 (5=80-100% damage) | 5 (5=80-100% damage) | 4 (4=60-79% damage) | 5 (5=80-100% damage) | 5 (5=80-100% damage) | 5 (5=80-100% damage) | 5 (5=80-100% damage) | 5 (5=80-100% damage) | 5 (5=80-100% damage)
9 | Cc1c(-c2cnn(C)c(=O)c2O)ccc(S(C)(=O)=O)c1C1=NOCC1 [Compound 1.018] | 2 (2=20-39% damage) | 4 (4=60-79% damage) | 5 (5=80-100% damage) | 5 (5=80-100% damage) | 5 (5=80-100% damage) | 5 (5=80-100% damage) | 4 (4=60-79% damage) | 5 (5=80-100% damage) | 5 (5=80-100% damage) | 5 (5=80-100% damage) | 5 (5=80-100% damage) | 5 (5=80-100% damage)
10 | Cn1nc(O)c(-c2ccc(C(F)(F)F)cc2S(C)(=O)=O)c(O)c1=O [Compound 2.056] | 4 (4=60-79% damage) | 5 (5=80-100% damage) | 5 (5=80-100% damage) | 5 (5=80-100% damage) | 5 (5=80-100% damage) | 3 (3=40-59% damage) | 5 (5=80-100% damage) | 5 (5=80-100% damage) | 5 (5=80-100% damage) | 5 (5=80-100% damage) | 5 (5=80-100% damage) | 5 (5=80-100% damage)
